According to patent US20090169494A1, “Sunscreen cosmetic composition” (Shiseido Company Ltd, priority 2005, published 2009):

Experiment: Solubility of the triazine UV absorbent in oil components A-E
Type: physicochemical
Conditions: dissolved at 80° C., three days stirring at 0° C., supernatant absorbance at 342.8 nm; FIG. 1
Description: Solubility of 2,4-bis[[4-(2-ethylhexyloxy)-2-hydroxy]phenyl]-6-(4-methoxyphenyl)-1,3,5-triazine in the following oil components A-E was measured.
2,4-bis[[4-(2-ethylhexyloxy)-2-hydroxy]phenyl]-6-(4-methoxyphenyl)-1,3,5-triazine is heated and dissolved at 80° C. in each of the aforementioned oil components A-E. After the temperature naturally cools down to room temperature, a small amount of 2,4-bis[[4-(2-ethylhexyloxy)-2-hydroxy]phenyl]-6-(4-methoxyphenyl)-1,3,5-triazine in powder form is added, followed by three days of stirring and cooling (stirrer) at 0° C. After this, the supernatant solution is quickly sampled before the temperature rises and 30 mg (actual measurement) of it is diluted to 100 mL of ethyl acetate. The absorbance at 342.8 nm of the obtained diluted solution is measured. The obtained absorbance is plotted against a previously prepared calibration curve to determine the solubility.

Structure (SMILES) | Solubility of 2,4-bis[[4-(2-ethylhexyloxy)-2-hydroxy]phenyl]-6-(4-methoxyphenyl)-1,3,5-triazine in the oil component
CC(C)COc1ccc(-n2nc3ccccc3n2)c(O)c1 [Oil component E, 2-(2-hydroxy-4-isobutoxyphenyl)-2H-benzotriazole] | particularly good
CCCCC(CC)COc1ccc(-n2nc3ccccc3n2)c(O)c1 (centres unmarked) [Oil component D, 2-[4-(2-ethylhexyloxy)-2-hydroxyphenyl]-2H-benzotriazole] | particularly good
